Measurements reported in ChEMBL document CHEMBL1154169, “Activity and molecular modeling of a new small molecule active against NNRTI-resistant HIV-1 mutants” (Eur J Med Chem, 2009).

How the values were obtained:
[1] = system: Bovine viral diarrhea virus 1; assay: Antiviral activity against Bovine viral diarrhea virus infected in MDBK cells assessed as protection against virus-induced cytopathogenicity after 2 to 3 days by MTT assay; type: functional, organism-based; conditions: Bovine viral diarrhea virus isolates and strains
Yellow fever virus = assay: Antiviral activity against Yellow fever virus infected in BHK-21 cells assessed as protection against virus-induced cytopathogenicity after 2 to 3 days by MTT assay; type: functional, organism-based
Coxsackievirus B2 = assay: Antiviral activity against Coxsackievirus B2 infected in african green monkey Vero cells assessed as reduction of virus plaque formation after 3 days; type: functional, organism-based; conditions: Enterovirus B, 72 h
Poliovirus 1 = assay: Antiviral activity against Poliovirus Sb-1 infected in african green monkey Vero cells assessed as reduction of virus plaque formation after 3 days; type: functional, cell-based; conditions: Enterovirus C, Sabin, 72 h
[2] = system: Human immunodeficiency virus 1; assay: Antiviral activity against HIV1 3B infected in human MT4 cells assessed as protection against virus-induced cytopathogenicity after 4 days by MTT assay; type: functional, organism-based; conditions: Human immunodeficiency virus 1, 3B, MT4, 96 h
[3] = system: Respiratory syncytial virus; assay: Antiviral activity against Respiratory syncytial virus assessed as reduction of virus plaque formation by cell based assay; type: functional, organism-based; conditions: human respiratory syncytial virus
[4] = system: Vesicular stomatitis virus; assay: Antiviral activity against Vesicular stomatitis virus assessed as reduction of virus plaque formation by cell based assay; type: functional, organism-based
[5] = system: Mammalian orthoreovirus 1; assay: Antiviral activity against Reovirus 1 assessed as protection against virus-induced cytopathogenicity by cell based MTT assay; type: functional, organism-based
Vaccinia virus = assay: Antiviral activity against Vaccinia virus assessed as reduction of virus plaque formation by cell based assay; type: functional, organism-based; conditions: Orthopoxvirus vaccinia
[6] = Cytotoxicity against human MT4 cells assessed as reduction of cell viability after 4 days by MTT assay; type: cell-based
[7] = system: Human immunodeficiency virus 1; assay: Antiviral activity against NNRTI-resistant HIV1 N119 with reverse transcriptase Y181C mutant infected in human MT4 cells assessed as protection against virus-induced cytopathogenicity after 4 days by MTT assay; type: functional, organism-based; conditions: Human immunodeficiency virus 1, N119, MT4, 96 h
[8] = system: Human immunodeficiency virus 1; assay: Antiviral activity against NNRTI-resistant HIV1 A17 with reverse transcriptase K103N, Y181C mutant infected in human MT4 cells assessed as protection against virus-induced cytopathogenicity after 4 days by MTT assay; type: functional, organism-based; conditions: Human immunodeficiency virus 1, A17, MT4, 96 h
[9] = system: Human immunodeficiency virus 1; assay: Antiviral activity against HIV1 EFV with reverse transcriptase K103R, V179D, P225H mutant infected in human MT4 cells assessed as protection against virus-induced cytopathogenicity after 4 days by MTT assay; type: functional, organism-based; conditions: Human immunodeficiency virus 1, EFV, MT4, 96 h
[10] = system: Human immunodeficiency virus; assay: Inhibition of HIV reverse transcriptase RNA-dependent polymerase activity after 30 mins by fluorescent microplate assay

c1cnc2c(c1)Cc1nn[nH]c1C2
> 100 µM: EC50 [1] | EC50 (Yellow fever virus) | EC50 (Coxsackievirus B2) | EC50 (Poliovirus 1) | EC50 [2] | EC50 [3] | EC50 [4] | EC50 [5] | EC50 (Vaccinia virus) | CC50 at 96 h [6] | EC50 [7] | EC50 [8] | EC50 [9]

CCOn1nnc2c1Cc1cccnc1C2
> 100 µM: EC50 [1] | EC50 (Yellow fever virus) | EC50 (Coxsackievirus B2) | EC50 (Poliovirus 1) | EC50 [2] | EC50 [3] | EC50 [4] | EC50 [5] | EC50 (Vaccinia virus) | CC50 at 96 h [6] | EC50 [7] | EC50 [8] | EC50 [9]

[O-][n+]1n[nH]c2c(Cl)c3ncccc3cc21
> 100 µM: EC50 [1] | EC50 (Yellow fever virus) | EC50 (Coxsackievirus B2) | EC50 (Poliovirus 1) | EC50 [2] | EC50 [3] | EC50 [4] | EC50 [5] | EC50 (Vaccinia virus) | CC50 at 96 h [6] | EC50 [7] | EC50 [8] | EC50 [9]

[O-][n+]1n[nH]c2c1Cc1cccnc1C2
active: Activity [10] Dose-dependent effect
> 100 µM: EC50 [1] | EC50 (Yellow fever virus) | EC50 (Coxsackievirus B2) | EC50 (Poliovirus 1) | EC50 [3] | EC50 [4] | EC50 [5] | EC50 (Vaccinia virus) | CC50 at 96 h [6]
9 µM: EC50 [9]
4 µM: EC50 [7]
12 µM: EC50 [2]
10 µM: EC50 [8]

c1c2c(cc3[nH]nnc13)NCCC2
> 100 µM: EC50 [1] | EC50 (Yellow fever virus) | EC50 (Coxsackievirus B2) | EC50 (Poliovirus 1) | EC50 [2] | EC50 [3] | EC50 [4] | EC50 [5] | EC50 (Vaccinia virus) | CC50 at 96 h [6] | EC50 [7] | EC50 [8] | EC50 [9]

Cc1ccnc2c1NC(=O)c1cccnc1N2C1CC1 [NEVIRAPINE]
7 µM: EC50 [7]
> 100 µM: CC50 at 96 h [6]
> 20 µM: EC50 [8] | EC50 [9]

O=C1Nc2ccc(Cl)cc2[C@@](C#CC2CC2)(C(F)(F)F)O1 [EFAVIRENZ]
45 µM: CC50 at 96 h [6]
7 µM: EC50 [9]
0.06 µM: EC50 [8]

c1cnc2cc3[nH]nnc3cc2c1
> 100 µM: EC50 [1] | EC50 (Yellow fever virus) | EC50 (Coxsackievirus B2) | EC50 (Poliovirus 1) | EC50 [2] | EC50 [3] | EC50 [4] | EC50 [5] | EC50 (Vaccinia virus) | CC50 at 96 h [6] | EC50 [7] | EC50 [8] | EC50 [9]
